For 4 compounds, viability and CC50 results are on record in paper PMC10993450, “New benzimidazole derivative compounds with in vitro fasciolicidal properties” (Parasites & Vectors, 2024).

Data set [1] can be described thus: Intestinal tolerability assay on murine intestinal organoids. Type of data set: cell-based, mouse. The following applies: C57BL/6, mouse, murine small-intestinal organoids, 72 h. As for the experimental part:
The murine intestinal organoid cultures were prepared following Stemcell Technologies™ protocols (https://www.stemcell.com/intestinal-epithelial-organoid-culture-with-intesticult-organoid-growth-medium-mouse-lp.html#protocols). Small intestine sections from C57BL/6 mice were excised, washed with ice-cold PBS, minced, and 2 mm segments were washed extensively. The segments were treated with Gentle Cell Dissociation Reagent (Stemcell Technologies™, Canada), resuspended in ice-cold PBS with 0.1% BSA and filtered. This process was repeated four times, resulting in four fractions. Cells from each fraction were centrifuged, washed, and resuspended in ice-cold DMEM/F12 supplemented with glutamine and HEPES 15 mM. Each fraction was mixed with Geltrex GFR LDEV-free (Gibco, Thermo Fisher Scientific, USA) and IntestiCult™ Organoid Grow Medium Mouse (Stemcell Technologies™, Canada), added to a 24-well plate and incubated at 37 °C for 10 min for matrix polymerization. The organoids were cultured in IntestiCult™ Organoid Grow Medium Mouse, with medium changes every 2 days and splitting after 7 days.
For intestinal tolerability assays, selected hit compounds were tested in mouse intestinal organoids at 25 and 50 µM final concentrations. The protocol, based on a previous work, involved the addition of Gentle Cell Dissociation Reagent (Stemcell Technologies™, Canada) on matrix domes, the disruption of the matrix, and the incubation the suspension. After centrifugation, cells were resuspended in DMEM/F12 supplemented with glutamine and HEPES 15 mM and centrifugated again. The pellet was resuspended in a mix of Geltrex GFR LDEV-free and IntestiCult™ Organoid Grow Medium Mouse. The mix was plated in 384-well plates, and after 4 days, mature organoids were exposed to the compounds. The positive control was hydrogen peroxide (0.15% v/v), and the negative control was DMSO (0.2%). Viability after 72 h was assessed using the alamarBlue assay.

The test system of the next data set is Caco2 cells. Further details: method as in doi:10.1016/j.molstruc.2022.133735. The following applies: cited from earlier work.

Molecules are shown by their SMILES.

`Cc1ccc2[nH]c(NC(=O)c3ccccc3)nc2c1` [BZD46]: in data set [1], the viability at 72 h, 25 µM worked out at 99.7% and the viability at 72 h, 50 µM is above 87%.

For `O=C(Nc1nc2cc(Cl)ccc2[nH]1)c1ccccc1` [BZD59], in data set [1], the viability at 72 h, 25 µM was determined as 82.7% and the viability at 72 h, 50 µM was determined as 56.7%. For the same compound, in the data set with Caco2 cells, the CC50 is around 62 µM.

In data set [1], `Cc1ccc2[nH]c(NCc3cccs3)nc2c1` [BZD31] registered a viability at 72 h, 25 µM of 60.5% and a viability at 72 h, 50 µM of 52.4%.

Turning to `COc1ccc2[nH]c(NC(=O)c3ccccc3)nc2c1` [BZD56], in data set [1], the viability at 72 h, 25 µM came to 82.5% and the viability at 72 h, 50 µM is above 87%.

For orientation: viability means a read-out of living cells in per cent, often relative to untreated cells. By CC50 is commonly meant the concentration at which the toxic effect on the cells reaches its halfway point.
